Laboratory results published in ChEMBL document CHEMBL5137094, “Construction of Covalent Bisubstrate Inhibitor of Protein Kinase Reacting with Cysteine Residue at Substrate-Binding Site” (J Med Chem, 2022).
Active and inactive are the calls of the source. The calls are words filed in the database; no cut-off is given here.

Key:
[1] = molecular target: T1, cAMP-dependent protein kinase catalytic subunit alpha (Homo sapiens, UniProt P17612); assay: Displacement of ARC-1063 fluorescent probe from recombinant human PKAC-alpha assessed as dissociation half life preincubated for 1 hr followed by photoluminescent probe addition by time-gated luminescence intensity based assay
[2] = molecular target: T1, cAMP-dependent protein kinase catalytic subunit alpha; assay: Binding affinity to human recombinant PKAC-alpha assessed as reduction in TGLI signal at 10 uM pretreated with compound followed by ARC-1063 fluorescent probe addition by time-gated luminescence intensity based displacement assay; details: time 60-480 min, TDE = time-dependent effect
[3] = molecular target: T1, cAMP-dependent protein kinase catalytic subunit alpha; assay: Binding affinity to human recombinant PKAC-alpha assessed as inactivation constant incubated for 1 hr by time-gated luminescence intensity based displacement assay
[4] = molecular target: T1, cAMP-dependent protein kinase catalytic subunit alpha; assay: Binding affinity to human recombinant PKAC-alpha assessed as inactivation constant measured upto 60 mins by Western blot analysis
[5] = molecular target: T1, cAMP-dependent protein kinase catalytic subunit alpha; assay: Covalent inhibition of human recombinant PKAC-alpha assessed as inhibition constant
[6] = GSH reactivity in potassium phosphate buffer at pH 7.4 assessed as half life at 0.15 mM at 30 degreeC measured for 30 to 60 mins by HPLC-MS analysis; format: physicochemical; details: potassium phosphate buffer with GSH, time 30-60 min
[7] = GSH reactivity in potassium phosphate buffer at pH 7.4 assessed as half life at 0.15 mM at 37 degreeC measured for 30 to 60 mins by HPLC-MS analysis; format: physicochemical; details: potassium phosphate buffer with GSH, time 30-60 min
[8] = Drug degradation in phosphate buffer at pH 7.4 assessed as half life at 0.15 mM at 30 degreeC measured for 30 to 60 mins by HPLC-MS analysis; format: ADME; details: time 30-60 min
[9] = Drug degradation in phosphate buffer at pH 7.4 assessed as half life at 0.15 mM at 37 degreeC measured for 30 to 60 mins by HPLC-MS analysis; format: ADME; details: time 30-60 min
[10] = molecular target: T1, cAMP-dependent protein kinase catalytic subunit alpha; assay: Binding affinity to human recombinant PKACalpha assessed as compound-protein adduct formation by measuring half life at 30 degreeC
[11] = molecular target: T1, cAMP-dependent protein kinase catalytic subunit alpha; assay: Binding affinity to human recombinant PKAC-alpha at Cys199 residue assessed as compound-protein adduct formation by measuring mass difference at 3.5 uM incubated for 2 hrs by LC-MS/MS analysis
[12] = molecular target: T1, cAMP-dependent protein kinase catalytic subunit alpha; assay: Inhibition of ARC-1063 fluorescent probe binding to recombinant human PKAC-alpha incubated for 1 hr by time-gated luminescence intensity based displacement assay
[13] = molecular target: T1, cAMP-dependent protein kinase catalytic subunit alpha; assay: Inhibition of ARC-1063 fluorescent probe binding to recombinant human PKAC-alpha incubated for 22 hrs by time-gated luminescence intensity based displacement assay
[14] = molecular target: T1, cAMP-dependent protein kinase catalytic subunit alpha; assay: Irreversible inhibition of ARC-1063 fluorescent probe binding to recombinant human PKAC-alpha incubated for 22 hrs followed by probe addition at 20 nM and further incubated for 1 hr by time-gated luminescence intensity based displacement assay
[15] = molecular target: T1, cAMP-dependent protein kinase catalytic subunit alpha; assay: Displacement of ARC-1063 fluorescent probe from recombinant human PKAC-alpha assessed as dissociation equilibrium constant preincubated for 1 hr followed by photoluminescent probe addition by time-gated luminescence intensity based assay
[16] = molecular target: T1, cAMP-dependent protein kinase catalytic subunit alpha; assay: Displacement of ARC-1063 fluorescent probe from recombinant human PKAC-alpha assessed as binding constant (kon) preincubated for 1 hr followed by photoluminescent probe addition by time-gated luminescence intensity based assay

| SMILES | T1/2 [1] | Activity [2] | Kinact [3] | Kinact [4] | Ki [5] | half-life at 150 µM [6] | half-life at 150 µM [7] | half-life at 150 µM [8] | half-life at 150 µM [9] | T1/2 [10] | Activity [11] | IC50 [12] | IC50 [13] | IC50 [14] | Kd [15] | K [16] |
| --- | --- | --- | --- | --- | --- | --- | --- | --- | --- | --- | --- | --- | --- | --- | --- | --- |
| CC[C@H](C)[C@H](NC(=O)CCC(=O)N[C@@H](CCCCNC(=O)[C@@H](CCCNC(=N)N)NC(=O)CCCCCCCC(=O)N1CCN(c2ncnc3[nH]ccc23)CC1)C(=O)N[C@H](CCCNC(=N)N)C(=O)N[C@H](CCCNC(=N)N)C(N)=O)C(=O)NCC(=O)CF | 19 min | Tde | 6.1 10^-4/s | 5.8 10^-4/s | 0.023 nM | 44.4 min | 22.2 min | 78.6 min | 57 min | 19.2 min | Active | – | – | – | – | – |
| CC[C@H](C)[C@H](NC(=O)CCC(=O)N[C@@H](CCCCNC(=O)[C@@H](CCCNC(=N)N)NC(=O)CCCCCCCC(=O)N1CCN(c2ncnc3[nH]ccc23)CC1)C(N)=O)C(=O)NCC(=O)CF | > 150 min | Tde | 3.3 10^-5/s | – | 4.2 nM | – | – | – | – | 346 min | – | – | – | – | – | – |
| CC[C@H](C)[C@H](NC(=O)CCC(=O)N[C@@H](CCCCNC(=O)[C@@H](CCCNC(=N)N)NC(=O)CCCCCCCC(=O)N1CCN(c2ncnc3[nH]ccc23)CC1)C(=O)N[C@H](CCCNC(=N)N)C(N)=O)C(=O)NCC(=O)CF | > 150 min | Tde | 7.7 10^-5/s | – | 0.63 nM | – | – | – | – | 151 min | – | 1200 nM | 500 nM | 800 nM | – | – |
| CC[C@H](C)[C@H](NC(=O)CCC(=O)N[C@@H](CCCCNC(=O)[C@@H](CCCNC(=N)N)NC(=O)CCCCCCCC(=O)N1CCN(c2ncnc3[nH]ccc23)CC1)C(=O)N[C@H](CCCNC(=N)N)C(N)=O)C(=O)NCC(C)=O | 0.5 min | – | – | – | – | – | – | – | – | – | – | 790 nM | – | – | 0.63 nM | 3.8 10^7/M/s |
| CC[C@H](C)[C@H](NC(=O)CCC(=O)N[C@@H](CCCCNC(=O)[C@@H](CCCNC(=N)N)NC(=O)CCCCCCCC(=O)N1CCN(c2ncnc3[nH]ccc23)CC1)C(N)=O)C(=O)NCC(C)=O | 0.1 min | – | – | – | – | – | – | – | – | – | – | 6100 nM | – | – | 4.2 nM | 3.3 10^7/M/s |
